# Experimental data taken from paper PMC10515640, “Structure-Based Optimization of Covalent, Small-Molecule Stabilizers of the 14-3-3σ/ERα Protein–Protein Interaction from Nonselective Fragments” (Journal of the American Chemical Society, 2023).
# Columns and labels:
# 14-3-3σ/ERα [1] = target: T1, 14-3-3σ/ERα (Homo sapiens, UniProt P03372+P31947); experiment: Fluorescence anisotropy protein titration, FAM-labeled ERα peptide; assay type: binding; conditions: 10 nM FAM-ERα peptide, versus DMSO reference
# T1 construct: The 14-3-3 σ isoform (full-length for mass spectrometry and fluorescence anisotropy assays, ΔC for crystallography); made in house; host or cells: E. coli Rosetta 2(DE3)pLysS, pPROEX HTb vector
# Protocol: To evaluate compound-mediated stabilization of the 14-3-3σ/ERα complex directly, FA protein titrations were performed at a saturating concentration of compound. FA protein titrations allowed the quantification of the cooperative effect by comparing the apparent dissociation constants (appKD) of the binary and ternary complexes. 14-3-3σ was titrated into 10 nM FAM-labeled ERα peptide in the presence of DMSO or 100 μM of the compounds (Table S4). […]
# diluted in buffer (10 mM HEPES, pH 7.5, 150 mM NaCl, 0.1% Tween20, 1 mg/mL Bovine Serum Albumin (BSA; Sigma-Aldrich). Final DMSO in the assay was always 1%. […]
# Protein titrations were made by titrating 14-3-3σ in a 2-fold dilution series (starting at 300 µM) to a mix of fluorescein-labeled peptide (10 nM) and DMSO or compound (100 µM). Fluorescence anisotropy measurements were performed after overnight incubation at room temperature. […]
# (§1) Wells containing only FAM-peptide were used to set as G-factor at 35 mP. Data reported are at endpoint. EC50 and apparent Kd values were obtained from fitting the data with a four-parameter logistic model (4PL) in GraphPad Prism 7 for Windows. Data was obtained and averaged based on either three (compound titrations) or two (protein titrations) independent experiments.
# 14-3-3σ/C-RAF [2] = target: T2, 14-3-3σ/C-RAF (Homo sapiens, UniProt P31947); experiment: Fluorescence anisotropy compound titration, FAM-labeled C-RAF peptide; assay type: binding; conditions: 10 nM C-RAF-FAM labeled peptide, 5 µM 14-3-3σ, overnight incubation; read-out: EC50 value C-RAF (FA compound titration)
# T2 construct: The 14-3-3 σ isoform (full-length for mass spectrometry and fluorescence anisotropy assays, ΔC for crystallography); made in house; host or cells: E. coli Rosetta 2(DE3)pLysS, pPROEX HTb vector
# T2 sequence (P31947 1-248): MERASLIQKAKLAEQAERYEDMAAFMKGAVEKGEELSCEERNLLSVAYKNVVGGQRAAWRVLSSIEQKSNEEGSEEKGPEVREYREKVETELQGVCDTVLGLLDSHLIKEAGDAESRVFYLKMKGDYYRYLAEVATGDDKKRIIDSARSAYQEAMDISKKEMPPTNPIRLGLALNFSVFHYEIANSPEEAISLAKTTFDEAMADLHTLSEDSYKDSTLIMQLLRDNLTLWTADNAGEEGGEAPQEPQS
# Excerpt: Two orthogonal assays were developed for screening. For the primary assay, mass spectrometry (MS) was used to monitor the formation of the covalent bond between the compound and the native cysteine (Cys38 on 14-3-3σ) (Figure 1D). The assay was first performed in the absence of peptide to determine binding to 14-3-3σ only (apo screening, D1) and then in the presence of both 14-3-3σ and the peptide as an indication of how much the peptide stabilized compound binding (D2). […] As a secondary assay, fluorescence anisotropy (FA) was used. In this case, compounds were titrated to mixtures of 14-3-3σ and FAM-labeled peptides. […] Thus, the two assays are highly complementary; the MS assay reports on compound binding and the FA assay reports on peptide binding. […]
# diluted in buffer (10 mM HEPES, pH 7.5, 150 mM NaCl, 0.1% Tween20, 1 mg/mL Bovine Serum Albumin (BSA; Sigma-Aldrich). Final DMSO in the assay was always 1%. Dilution series of 14-3-3 proteins or compounds were made in […]
# Compound titrations were made by titrating the compound in a 2-fold dilution series (starting at 500 or 1000 µM) to a mix of fluorescein-labeled peptide (10 nM) and 14-3-3σ (concentration at approximately the EC20 to EC30 value of the protein-peptide complex; 1 µM for ERα and 5 µM for C-RAF). Using the ~EC25 value makes the assay sensitive for measuring an increase in PPI formation. Fluorescence anisotropy measurements were performed directly and after overnight incubation at room temperature. […]
# as §1
# 14-3-3σ = target: T3, 14-3-3σ (Homo sapiens, UniProt P31947); experiment: Mass spectrometry dose response, compound binding to 14-3-3σ in the absence of peptide (apo); conditions: 100 nM compound, 100 nM 14-3-3σ
# T3 construct: The 14-3-3 σ isoform (full-length for mass spectrometry and fluorescence anisotropy assays, ΔC for crystallography); made in house; host or cells: E. coli Rosetta 2(DE3)pLysS, pPROEX HTb vector
# T3 sequence (P31947 1-248): T2 sequence (P31947 1-248)
# Outline: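 Covalent binding of compounds to Cys38 of full-length wild type human 14-3-3σ (100 nM) was measured by LC-MS without peptide present. Compounds from 50 mM DMSO stocks were serially diluted 3-fold and 1000 nl transferred to plates in TRIS buffer (10 mM, pH 8.0), 50 μl per well. Samples were desalted on a BEH-C4 column and analysed on a Xevo G2-XS Q-Tof at several time points.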
# 14-3-3σ/ERα [3] = target: T1, 14-3-3σ/ERα; experiment: Mass spectrometry dose response, compound binding to 14-3-3σ in the presence of ERα phosphopeptide; conditions: 100 nM compound, 100 nM 14-3-3σ, ERα-peptide 2 µM
# Outline: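 Covalent labeling of Cys38 on 14-3-3σ was tracked by LC-MS on a Waters Acquity UPLC/Xevo G2-XS Q-Tof, with samples desalted on a Protein BEH-C4 column. Full-length wild type 14-3-3σ (100 nM) plus ERα phosphopeptide was mixed with compound in 10 mM TRIS, pH 8.0, at 50 μl per well. Percent bound was measured at several time points.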
# 14-3-3σ/C-RAF [4] = target: T2, 14-3-3σ/C-RAF; experiment: Mass spectrometry dose response, compound binding to 14-3-3σ in the presence of C-RAF phosphopeptide; conditions: 100 nM compound, 100 nM 14-3-3σ, C-RAF peptide 18 µM
# Outline: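 Covalent binding of compounds to the native Cys38 of 14-3-3σ was monitored by LC-MS on a Waters Acquity UPLC/Xevo G2-XS Q-Tof, with samples desalted on a BEH-C4 column. Full-length wild type 14-3-3σ (100 nM) with C-RAF peptide in TRIS buffer (10 mM, pH 8.0) was incubated with compound dose series at room temperature.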
# 14-3-3σ/ERα [5] = target: T1, 14-3-3σ/ERα; experiment: Fluorescence anisotropy compound titration, FAM-labeled ERα peptide; assay type: binding; conditions: 10 nM ERα-FAM labeled peptide, 1 µM 14-3-3σ, overnight incubation (24 h); read-out: EC50 value ERα (FA compound titration)
# Outline: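 Fluorescence anisotropy compound titration measuring stabilization of the 14-3-3σ/ERα interaction: compounds were titrated in a 2-fold dilution series (starting at 500 or 1000 µM) into a mix of 10 nM fluorescein-labeled ERα peptide and 1 µM 14-3-3σ (about EC25 of the complex) in HEPES buffer with 1% DMSO, read after overnight incubation at room temperature; EC50 from 4PL fitting.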
Structure (SMILES),X Fold stabilization (100 µM compound) of 14-3-3σ/ERα (14-3-3σ/ERα [1]) [fold],EC50 (14-3-3σ/C-RAF [2]) [µM],"Percentage (%) bound of compound to 14-3-3σ, APO 1h (14-3-3σ) [%]","Percentage (%) bound of compound to 14-3-3σ, APO 8h (14-3-3σ) [%]","Percentage (%) bound of compound to 14-3-3σ, APO 16h (14-3-3σ) [%]","Percentage (%) bound of compound to 14-3-3σ, APO 24h (14-3-3σ) [%]","Percentage (%) bound of compound to 14-3-3σ, ERα 1h (14-3-3σ/ERα [3]) [%]","Percentage (%) bound of compound to 14-3-3σ, ERα 8h (14-3-3σ/ERα [3]) [%]","Percentage (%) bound of compound to 14-3-3σ, ERα 16h (14-3-3σ/ERα [3]) [%]","Percentage (%) bound of compound to 14-3-3σ, ERα 24h (14-3-3σ/ERα [3]) [%]","Percentage (%) bound of compound to 14-3-3σ, CRAF 1h (14-3-3σ/C-RAF [4]) [%]","Percentage (%) bound of compound to 14-3-3σ, CRAF 8h (14-3-3σ/C-RAF [4]) [%]","Percentage (%) bound of compound to 14-3-3σ, CRAF 24h (14-3-3σ/C-RAF [4]; 24h) [%]","Percentage (%) bound of compound to 14-3-3σ, CRAF 24h (14-3-3σ/C-RAF [4]; head prints 24h) [%]",EC50 (14-3-3σ/ERα [5]) [µM]
"C=CC(C)(C)OCC1OC(OC2C3=C(C(C)COC(C)=O)CC(O)C3(C)C=C3C(COC)CCC3C(C)C2O)C(O)C(OC(C)=O)C1O (stereo not drawn) [FC-A, Fusicoccin-A, reference compound]",166,–,–,–,–,–,–,–,–,–,–,–,–,–,–
Cl.O=C(CCl)NCC1CCN(C(=O)C2(Oc3ccc(Cl)cc3)CCNCC2)CC1 [compound 129],–,> 150,0.9,2.0,2.4,4.8,16.5,31.4,58.4,82.6,0.4,0.6,2.6,1.9,30 ± 1
NC1CCC(Oc2ccc(Cl)cc2)(C(=O)N2CCC(CNC(=O)CCl)CC2)CC1 (stereo not drawn) [compound 135],–,> 150,0.8,0.9,1.8,2.4,11.3,22.2,42.2,64.2,0.5,1.8,3.4,2.6,37 ± 5
O=C(CCl)N1CC2(CCN(C(=O)C3(Nc4ccc(Cl)cc4)CCOCC3)CC2)C1 [compound 160],–,> 150,0,0,1.0,5.8,6.9,8.6,48.4,76.6,0.4,1.9,8.4,3.8,16 ± 1
O=C(CCl)N1CCC2(CC1)CN(C(=O)C1(Nc3ccc(Cl)cc3)CCOCC1)C2 [compound 161],–,> 150,0,0,0.5,1.0,4.7,7.8,14.9,39.8,0,0.6,2.1,1.0,22 ± 1
O=C(CCl)NCC1CC2(CCN(C(=O)C3(Nc4ccc(Cl)cc4)CCOCC3)CC2)C1 [compound 174],–,> 150,1.0,1.0,1.5,3.0,5.0,5.0,8.4,41.4,0.6,0.7,2.1,1.6,97 ± 9
O=C(CCl)N1CCC2(CC1)CC(CNC(=O)C1(Nc3ccc(Cl)cc3)CCOCC1)C2 [compound 175],–,> 150,1.9,5.4,10.6,16.7,21.7,39.4,64.1,87.3,2.4,6.0,17.4,9.6,15 ± 2
CC1(C)CC(Nc2ccc(Cl)cc2)(C(=O)N2CCC(CNC(=O)CCl)CC2)CC(C)(C)O1 [compound 179],–,> 150,0,0,0.3,0.4,1.5,3.0,6.4,11.8,0,0,1.0,0,23 ± 2
